Values joined by “and” are separate entries in the source; they are usually repeats but may differ in a detail not shown here. Identical values can stand only once. Square brackets hold non-standard residues; d marks the D form. * marks the point of attachment. Palmitoyl = CCCCCCCCCCCCCCCC(=O)*; NMeV = CN[C@H](C(=O)O)C(C)C; NMeA = CN[C@@H](C)C(=O)O; Aib = CC(C)(N)C(=O)O
How the values were obtained:
[1] = system: D. suzukii larvae; test: Drosophila suzukii larval feeding (Example 9; dose response); assay type: in vivo; details: for % Lethality ± SEM: Table 6, 10^−5 M, 48 hr and/or 72 h exposure (FIG. 7: AH270/PEGAH270 120 h)
Procedure: Dose response experiments were carried out for AH382, AH383, AH188, data shown for AH382 (a), AH383 (b), AH188 (c, 48 hours). Data are mean % lethality ±SEM for concentrations between 10^−4 M and 10^−7 M (a) AH382, (b) AH383 72 hours treatment; and between 10^−5 M and 10^−9 M (AH188, 3c), 48 hours treatment. The LD50 for AH382, AH383 and AH188 is 10^−6 M.
Further larval feeding assays with D. suzukii larvae were conducted as explained above in example 7. A total of 88 peptides were tested against D. suzukii larvae in 96 well plates at 10^−5 M in a final volume of 200 μl of 0.8% agarose containing 0.09% m-Cresol purple pH marker dye (Sigma) and 5% sucrose (Sigma). Controls contained dH2O (18% lethality) or native Capa-2 peptide (38% lethality) as a ‘sham’ treatment. Each peptide was assayed with a minimum of 7 to maximum 9 late L2/early L3 larvae per well, minimum n=8 wells per peptide concentration (minimum 56 larvae) and a minimum n=12 control wells (minimum 84 larvae) per plate. Larvae were assayed for lethality after 48 hr and/or 72 h exposure at 21° C. using a binocular stereomicroscope and findings recorded. Candidate peptides were also tested between 10^-4 and 10^-7 M (dose response curve).
Candidate peptides for D. suzukii with 70%-90% lethality are indicated below, in Table 6.

[2] = system: M. persicae; test: Feeding of aphids with peptides in artificial diet (Example 1); assay type: in vivo, Myzus persicae
Procedure: A standard artificial diet for M. persicae was produced as described in Van Emden (2009) and provided the basal diet to which peptides were added for screening purposes. Peptides were diluted individually in the artificial diet to a pre-determined concentration.
Feeding apparatus were constructed using a set-up developed by Sadeghi et al (2009). For this, a piece of Parafilm was stretched over a Plexiglas ring (h=4 cm, Ø=3 cm) and 100 μl of the artificial diet containing the desired neuropeptide analogue was pipette onto the Parafilm membrane. A second piece of Parafilm, stretched to 4 times the original thickness, was stretched over the original layer, sandwiching the artificial diet between two layers of Parafilm. A strip of Parafilm was wrapped around the circumference of the Plexiglas ring, sealing in the diet. A plastic ring (h=1.2 cm, Ø=3.4 cm) was subsequently placed over the Parafilm layer, creating a walled chamber in which to house test aphids in contact with the Parafilm layer containing the artificial diet. Finally, a small Petri dish (h=1 cm, Ø=3.6 cm), modified for ventilation with net cloth, was placed on top of each feeding apparatus to prevent aphid escape.
To obtain aphids for use in experiments, reproducing anholocyclic adults were placed on individual excised leaves of Chinese cabbage at densities of 5 adults per leaf and allowed to reproduce for 24 h. The stem of each excised leaf was held within a 0.5 mL Eppendorf tube containing water via a punctured hole in the Eppendorf lid, and placed individually within a microcage (L=4 cm, Ø=9.5 cm). Following 24h, adults were removed and resultant first instar nymphs (<1 day old and synchronised in age to within 24h) retained. Nymphs were allowed to develop on the Chinese cabbage for 5 days. On day 5, (3rd instar) nymphs were transferred onto the artificial diet containing a neuropeptide analogue at densities of 1 per feeding chamber and monitored daily until death. Aphids were transferred to fresh artificial diet (containing neuropeptide analogue or water control) every 5 days.
The water control group was used to determine baseline lethality. Results for neuropeptide analogues were calculated as % lethality in the remaining population after adjustment for the baseline.

[3] = system: M. persicae; test: Feeding of aphids with peptides in artificial diet (Example 2; peptide screening, honeydew); assay type: in vivo, Myzus persicae; details: for M. persicae (% Lethality): Peptide screening, Table 5; for mean lethality / lethality observed in one sample of 30 insects: M. persicae feeding, 10^−5 M, 120 hours; for lethality observed in one sample of 30 insects: single sample
Source text: (§1) First to Fourth generations of peptides were produced with varying structures and tested for CAPA receptor agonist activity, and screened for lethality in vivo against D. suzukii and M. persicae as per methods in example 2 and example 8. The top performing peptides were selected and gave rise to the list of CAPA1 and CAPA2 peptides provided above in Table 1 which were then further tested in the following applied examples.
The aphid feeding protocol was devised according to Sadeghi et al (2009) as explained in example 1. Feeding discs were designed and manufactured as above. A standard sucrose-based artificial diet for M. persicae (30 aphids per chamber, 3 chambers per experiment unless otherwise stated) was produced as described in example 1 (Sadeghi et al, J. Insect Science, 2009) and provided the basal diet to which peptides were added for screening purposes. Peptides were diluted individually in the artificial diet to 10^−5 M. Lethality was scored after up to 120 hours (IRAC guidelines for aphid testing).
Membrane discs were also included to collect ‘honeydew’ secreted by feeding aphids and stained with ninhydrin to observe feeding patterns.
Comparison of purple stain in controls to treated aphids, show there is very little colour on many membranes where peptides were added.
Capa peptides cause mortality in M. persicae via feeding: At 120 hours, AH383 and AH387 peptides induce ˜60% mean (and median) lethality. Although mean lethality is lower with AH270/PEGAH270 (40%), 100% lethality is observed in one sample of 30 insects (AH270); and 90% in at least one sample of each of AH383, AH387 and PEGAH270 (FIG. 3). Note that PEGAH270 is a pegylated form of peptide AH270.

[4] = system: Drosophila suzukii larvae; test: Drosophila suzukii larval feeding (Example 8; peptide screening); assay type: in vivo; set-up: key to D. suzukii (Sig Diff Grp): A indicates a significant difference in survival compared with control (blank).; B indicates a significant difference in survival compared with scrambled capa1.; C indicates a significant difference in survival compared with scrambled capa2; details: for Feeding D. suzukii, % lethality in population after adjustment for baseline: 10^−5 M, 48 hr exposure
Procedure: as §1
Peptides were tested at concentrations ranging from [10^−4 M] to [10^−7 M] in a final volume of 200 μl of 0.8% agarose containing 0.09% m-Cresol purple pH marker dye (Sigma) and 5% sucrose (Sigma).
Agarose was melted in dH2O, before addition of sucrose and dye. The agarose/dye solution was then allowed to cool to 60° C. 96 well plates (flat-bottomed 3596 TC-plates; Corning) containing 20 μl volumes of neuropeptide per well were prepared, and 180 μl agarose/dye solution dispensed into each well via a Distriman repetitive micro-pipettor (Gilson). Controls contained 20 μl dH2O as a ‘sham’ treatment with 180 μl of the 0.8% agarose/dye solution. Plates were agitated at 800 rpm, to ensure mixing, at 60° C. (Eppendorf Thermomixer C). Plates were then allowed to cool, and agarose/dye solution solidify, prior to use.
Each peptide was assayed with a minimum of 7 to maximum 9 late L2/early L3 Spotted wing Drosophila, Drosophila suzukii, (feeding) larvae per well, minimum n=8 wells per peptide concentration and a minimum n=12 control wells per plate. The selected larvae were first washed 2× in ice cold Drosophila Schneider's liquid medium (ThermoFisher) before insertion into wells to remove extraneous food. After complete insertion of all larvae the plates were covered with breathable sealing membrane for multi-well plates (Sigma).
Larvae were assayed for lethality after 48 hr exposure at 21° C. and findings recorded. During examination the assay plate was kept on ice, to reduce larval locomotor activity (wandering), and larvae in each well were examined using a binocular stereomicroscope (Zeiss).
The water control group was used to determine baseline lethality. Results for neuropeptide analogues were calculated as % lethality in the remaining population after adjustment for the baseline. Results are shown in Tables 7 and 8 below, and in FIG. 1.

[5] = system: Myzus persicae aphids; test: Topical application by spraying, Potter Spray Tower (Example 3); assay type: in vivo; details: 48 hours post spray
Procedure: Aphids were exposed to test peptides in the absence of additional external stress conditions.
Brassica rapa (Chinese cabbage; Wong Bok) were infested with 30 adult Myzus persicae aphids per plant. Aphids were left at least 2 hours to settle and begin feeding from the host plant.
Potter Spray Tower (Burkard Manufacturing) was ‘primed’ by spraying 1000 μl of liquid coating the inside of the tower. Vehicle spray only (Croda ATPlus UEP 100 LQ-(CQ) 0.1% v/v) was used as a control.
Spray volumes for all solutions were 3000 μl. […] After spraying was completed the plant was allowed to rest on the spray platform for 30 seconds to allow settling of the sprayed chemical.
Post peptide application, each condition was placed into its own individual Bugdorm (Watkins and Doncaster, 44545), to prevent repulsed or displaced aphids moving from one condition to another. Numbers of alive and dead aphids on the plant were counted 48 hours post spray, and the presence of any fresh nymphs noted. Plants were watered prior to spraying but not afterwards to eliminate the possibility of drowning any aphids present or washing off the sprayed liquid.
The vehicle control group was used to determine baseline lethality. Results for neuropeptide analogues were calculated as % lethality in the remaining population after adjustment for the baseline.

[6] = system: bumblebees (Bombus terrestris); test: Bumblebee acute oral toxicity test; assay type: in vivo
Procedure: Oral toxicity against bumblebees (Bombus terrestris) was determined as previously described:
OECD (2017), Test No. 247: Bumblebee, Acute Oral Toxicity Test, OECD Guidelines for the Testing of Chemicals, Section 2, OECD Publishing, Paris, https://doi.org/10.1787/9789264284128-en.
Example data are provided for peptides, AH56, AH257, AH259 in Tables 4, 5 below. […]
Data were acquired for: feeding behaviour—weight of liquid consumed pre- and post-treatment; lethality (days).
There was no negative impact on feeding behaviour from capa peptides. Acute bumblebee toxicity was also assessed for other peptide candidates including: AH270, PEG270. Overall, capa peptides are bee safe.

[7] = Table 11, individual bees, peptide 1 × 10 − 5M or Spirotetramat 25 uM, listed as AHPEG270

H-ASGLVAFPRV-NH2 [Capa-2, reference compound]
lethality ([1]; control ('sham') treatment, not baseline adjusted): 38%

H-Ahx-L-(Me)V-AFPRV-NH2 [AH283]
Feeding Aphid, % lethality in population after adjustment for baseline ([2]; 10^−4 M): 34% | Feeding Aphid, % lethality in population after adjustment for baseline ([2]; 10^−5 M): 26% | Feeding Aphid, % lethality in population after adjustment for baseline ([2]; 10^−5 M, @72 h): 12 (51% | Feeding Aphid, % lethality in population after adjustment for baseline ([2]; 10^−6 M): 27% | Feeding Aphid, % lethality in population after adjustment for baseline ([2]; 10^−7 M): 20% | M. persicae (% Lethality) [3]: 40% | Feeding D. suzukii, % lethality in population after adjustment for baseline [4]: 43% | D. suzukii (Mean% Lethality ± SD) ([4]; Peptide screening, Table 5, blank control 20.33): 42.63% | D. suzukii (Sig Diff Grp) ([4]; Peptide screening, Table 5, difference in survival): A | Spray Aphid, % lethality in population after adjustment for baseline ([5]; 10^−4 M): 30% | Spray Aphid, % lethality in population after adjustment for baseline ([5]; 10^−5 M): 20%

H-LY-(Me)A-FARV-NH2 (H-LY[NMeA]FARV-NH2; SMILES CC(C)C[C@H](N)C(=O)N[C@@H](Cc1ccc(O)cc1)C(=O)N(C)[C@@H](C)C(=O)N[C@@H](Cc1ccccc1)C(=O)N[C@@H](C)C(=O)N[C@@H](CCCNC(=N)N)C(=O)N[C@H](C(N)=O)C(C)C) [AH382]
Feeding Aphid, % lethality in population after adjustment for baseline ([2]; 10^−5 M): 12% | LD50 ([1]; 72 hours treatment): 10^−6 M | % Lethality ± SEM [1]: 90 + 4% | Feeding D. suzukii, % lethality in population after adjustment for baseline [4]: 43% | Spray Aphid, % lethality in population after adjustment for baseline ([5]; 10^−4 M): 49% | Spray Aphid, % lethality in population after adjustment for baseline ([5]; 10^−5 M): 10%

H-LY-Aib-FARV-NH2 (H-LY[Aib]FARV-NH2; SMILES CC(C)C[C@H](N)C(=O)N[C@@H](Cc1ccc(O)cc1)C(=O)NC(C)(C)C(=O)N[C@@H](Cc1ccccc1)C(=O)N[C@@H](C)C(=O)N[C@@H](CCCNC(=N)N)C(=O)N[C@H](C(N)=O)C(C)C) [AH387]
Feeding Aphid, % lethality in population after adjustment for baseline ([2]; 10^−5 M): 14% | Feeding Aphid, % lethality in population after adjustment for baseline ([2]; 10^−5 M, 60 h): 6 (35% | mean lethality [3]: ~60% | lethality observed in one sample of 30 insects [3]: 90% | Feeding D. suzukii, % lethality in population after adjustment for baseline [4]: 62% | Spray Aphid, % lethality in population after adjustment for baseline ([5]; 10^−5 M): 12%

H-LYAFAR-(Me)V-NH2 (H-LYAFAR[NMeV]-NH2; SMILES CC(C)C[C@H](N)C(=O)N[C@@H](Cc1ccc(O)cc1)C(=O)N[C@@H](C)C(=O)N[C@@H](Cc1ccccc1)C(=O)N[C@@H](C)C(=O)N[C@@H](CCCNC(=N)N)C(=O)N(C)[C@H](C(N)=O)C(C)C) [AH380]
Feeding Aphid, % lethality in population after adjustment for baseline ([2]; 10^−5 M): 12% | Feeding D. suzukii, % lethality in population after adjustment for baseline [4]: 45% | Spray Aphid, % lethality in population after adjustment for baseline ([5]; 10^−5 M): 33%

PEG-Ahx-LV-(Me)A-FPR-(Me)V-NH2 [PEGAH270, a pegylated form of peptide AH270]
Liquid post exposure (weight), Mean ([6]; Table 11, group mean, n=10): 0.8814 g | liquid consumed per day post exposure, Mean ([6]; Table 11, group mean, n=10): 0.2211 g | Liquid post exposure (weight) [6, 7]: 1.5744 g and 0.7150 g and 0.4326 g and 0.2731 g and 1.1763 g and 1.8061 g and 0.5676 g and 1.5696 g and 0.6889 g and 0.0102 g | days alive [6, 7]: 4 days (9×) and 0 (approx 1 hr) days | liquid consumed per day post exposure [6, 7]: 0.3936 g and 0.1788 g and 0.1082 g and 0.0683 g and 0.2941 g and 0.4515 g and 0.1419 g and 0.3924 g and 0.1722 g and 0.0102 g | safety towards B. terrestris in the bumblebee oral toxicity assay ([6]; in vivo, po): safe | % Lethality ± SEM [1]: 77 ± 4% | mean lethality [3]: 40% | lethality observed in one sample of 30 insects [3]: 90%

Palmitoyl-LYAFPRV-NH2 (SMILES CCCCCCCCCCCCCCCC(=O)N[C@@H](CC(C)C)C(=O)N[C@@H](Cc1ccc(O)cc1)C(=O)N[C@@H](C)C(=O)N[C@@H](Cc1ccccc1)C(=O)N1CCC[C@H]1C(=O)N[C@@H](CCCNC(=N)N)C(=O)N[C@H](C(N)=O)C(C)C) [AH62]
M. persicae (% Lethality) [3]: 29%
